From patent US20110027240A1, “[…] ENTRY […] FOR THERAPY OF HIV INFECTION” (priority 2008, published 2011) come the findings set out here.

The assay relates to lentiviral vector particles pseudotyped with the HIV-1 JRFL envelope glycoprotein. The assay is described as follows: Single-round infection assay. To be noted: PM-1 cells; supernatants of transfected HEK 293T cells; eGFP positive cells by flow cytometry. It counts as cell-based. The method, then: Virus production and titration: Viral vector supernatants were produced in HEK 293T cells. 6×10^6 cells were plated on 9.4 cm dishes 24 h prior to transfection. For transfection, the medium was changed and 25 μM chloroquine was added. 7.5 μg retroviral vector DNA was transfected by the calcium phosphate precipitation method. To generate GaLV pseudotyped retroviral particles 2 μg pALF-GaLV CM (GaLV CM expression plasmid; Stitz et al., Virology 2000) and 12.5 μg M57-DAW (MuLV gag/pol expression plasmid; Schambach et al., Gene Ther 2006) were transfected in addition. For the production of lentiviral vectors encoding eGFP, and pseudotyped with the HIV-1 JRFL envelope glycoprotein 7.5 μg pHR′SIN-cPPT-SEW-new (SIN lentiviral vector encoding eGFP), 12.5 μg pCMV-dR8.91 (lentiviral gag/pol expression plasmid), and 1 μg M118 (HIV-1 JRFL expression plasmid) were co-transfected. Medium was changed after 6-8 h incubation. […] In the case of lentiviral vectors expressing eGFP, vector titers were determined by transducing predefined numbers of PM-1 cells with serial dilutions of vector supernatant and analyzing the percentage of eGFP positive cells by flow cytometry. For retroviral vectors expressing secreted peptides transduced cells were analyzed by intracellular immunostaining for the peptide of interest. […]
For orientation: In flow cytometry, cells or beads pass a laser one at a time.

Regarding “WQQWERQVRFLDANITKLLEEAQIQQEKNMYELQELDKWASLWNWF [C46-EHO]”, the “antiviral (inhibitory) activity of supernatants containing secreted peptides” value is on record as “slightly reduced”.
